Measurements published in ChEMBL document CHEMBL1201862, “PubChem BioAssay data set” (2004).
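Method: 48-hour compound exposure of cells in 96-well plates, five concentrations, linear interpolation of endpoints. Here, GI50 denotes the concentration required for 50% inhibition of growth.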 Calls of active or inactive are those of the source. No stated cut-off is given here; in the data, active = GI50 up to about 1.1 µM and inactive = higher.

Columns and labels:
Assay in all cases: NCI-60 cell line screen, 48 h
U-251 = tested on: U-251
MDA-N = tested on: MDA-N
SF-295 = tested on: SF-295
SN12C = tested on: SN12C
M14 = tested on: M14
TK-10 = tested on: TK-10
OVCAR-8 = tested on: OVCAR-8
OVCAR-4 = tested on: OVCAR-4
SNB-75 = tested on: SNB-75
NCI-H460 = tested on: NCI-H460
A549 = tested on: A549
HT-29 = tested on: HT-29
HCT-116 = tested on: HCT-116
OVCAR-5 = tested on: OVCAR-5
CCRF-CEM = tested on: CCRF-CEM
SK-OV-3 = tested on: SK-OV-3
UACC-62 = tested on: UACC-62
SW-620 = tested on: SW-620
RPMI-8226 = tested on: RPMI-8226
HOP-92 = tested on: HOP-92
NCI-H23 = tested on: NCI-H23
SK-MEL-2 = tested on: SK-MEL-2
MCF7 = tested on: MCF7
NCI/ADR-RES = tested on: NCI/ADR-RES
SNB-19 = tested on: SNB-19
K562 = tested on: K562
786-0 = tested on: 786-0
EKVX = tested on: EKVX
MDA-MB-435 = tested on: MDA-MB-435
HCC 2998 = tested on: HCC 2998
T47D = tested on: T47D
NCI-H522 = tested on: NCI-H522
A498 = tested on: A498
ACHN = tested on: ACHN
DU-145 = tested on: DU-145
COLO 205 = tested on: COLO 205
BT-549 = tested on: BT-549
LOX IMVI = tested on: LOX IMVI
SK-MEL-5 = tested on: SK-MEL-5
SF-539 = tested on: SF-539
HL-60 = tested on: HL-60
RXF 393 = tested on: RXF 393
HOP-62 = tested on: HOP-62
MDA-MB-231 = tested on: MDA-MB-231
IGROV-1 = tested on: IGROV-1
CAKI-1 = tested on: CAKI-1
PC-3 = tested on: PC-3
MOLT-4 = tested on: MOLT-4
NCI-H226 = tested on: NCI-H226
UO-31 = tested on: UO-31
SK-MEL-28 = tested on: SK-MEL-28
SF-268 = tested on: SF-268
UACC-257 = tested on: UACC-257
KM12 = tested on: KM12
Hs-578T = tested on: Hs-578T
HCT-15 = tested on: HCT-15
OVCAR-3 = tested on: OVCAR-3
Malme-3M = tested on: Malme-3M
SR = tested on: SR

Q: Which results are given for `CN(O)C(=O)CCC(NC(=O)CCC(N)C(=O)O)C(=O)NCC(=O)O` (stereo unspecified)?
A: GI50 (U-251): > 100 µM (inactive); GI50 (MDA-N): > 100 µM (inactive); GI50 (SF-295): > 100 µM (inactive); GI50 (SN12C): > 100 µM (inactive); GI50 (M14): > 100 µM (inactive); GI50 (TK-10): > 100 µM (inactive); GI50 (OVCAR-8): > 100 µM (inactive); GI50 (OVCAR-4): > 100 µM (inactive); GI50 (SNB-75): > 100 µM (inactive); GI50 (NCI-H460): > 100 µM (inactive); GI50 (A549): > 100 µM (inactive); GI50 (HT-29): > 100 µM (inactive); GI50 (HCT-116): > 100 µM (inactive); GI50 (OVCAR-5): > 100 µM (inactive); GI50 (CCRF-CEM): > 100 µM (inactive); GI50 (SK-OV-3): > 100 µM (inactive); GI50 (UACC-62): > 100 µM (inactive); GI50 (SW-620): > 100 µM (inactive); GI50 (RPMI-8226): > 100 µM (inactive); GI50 (HOP-92): > 100 µM (inactive); GI50 (NCI-H23): > 100 µM (inactive); GI50 (SK-MEL-2): > 100 µM (inactive); GI50 (MCF7): > 100 µM (inactive); GI50 (NCI/ADR-RES): > 100 µM (inactive); GI50 (SNB-19): > 100 µM (inactive); GI50 (K562): > 100 µM (inactive); GI50 (786-0): > 100 µM (inactive); GI50 (EKVX): > 100 µM (inactive); GI50 (MDA-MB-435): > 100 µM (inactive); GI50 (HCC 2998): > 100 µM (inactive); GI50 (T47D): > 100 µM (inactive); GI50 (NCI-H522): > 100 µM (inactive); GI50 (A498): > 100 µM (inactive); GI50 (ACHN): > 100 µM (inactive); GI50 (DU-145): > 100 µM (inactive); GI50 (COLO 205): > 100 µM (inactive); GI50 (BT-549): > 100 µM (inactive); GI50 (LOX IMVI): > 100 µM (inactive); GI50 (SK-MEL-5): > 100 µM (inactive); GI50 (SF-539): > 100 µM (inactive); GI50 (HL-60): > 100 µM (inactive); GI50 (RXF 393): > 100 µM (inactive); GI50 (HOP-62): > 100 µM (inactive); GI50 (MDA-MB-231): > 100 µM (inactive); GI50 (IGROV-1): > 100 µM (inactive); GI50 (CAKI-1): > 100 µM (inactive); GI50 (PC-3): > 100 µM (inactive); GI50 (MOLT-4): > 100 µM (inactive); GI50 (NCI-H226): > 100 µM (inactive); GI50 (UO-31): > 100 µM (inactive); GI50 (SK-MEL-28): > 100 µM (inactive); GI50 (SF-268): > 100 µM (inactive); GI50 (UACC-257): > 100 µM (inactive); GI50 (KM12): > 100 µM (inactive); GI50 (Hs-578T): > 100 µM (inactive); GI50 (HCT-15): > 100 µM; GI50 (OVCAR-3): > 100 µM (inactive)

Q: What does the source list for `CN(CC(=O)O)CC(=O)O`?
A: GI50 (U-251): > 100 µM (inactive); GI50 (MDA-N): > 100 µM (inactive); GI50 (SF-295): > 100 µM (inactive); GI50 (SN12C): > 100 µM (inactive); GI50 (M14): > 100 µM (inactive); GI50 (TK-10): > 100 µM (inactive); GI50 (Malme-3M): > 100 µM (inactive); GI50 (OVCAR-8): > 100 µM (inactive); GI50 (OVCAR-4): > 100 µM (inactive); GI50 (SNB-75): 0.427 µM (active); GI50 (NCI-H460): > 100 µM (inactive); GI50 (A549): > 100 µM (inactive); GI50 (HT-29): > 100 µM (inactive); GI50 (HCT-116): > 100 µM (inactive); GI50 (OVCAR-5): > 100 µM (inactive); GI50 (CCRF-CEM): > 100 µM (inactive); GI50 (SK-OV-3): > 100 µM (inactive); GI50 (UACC-62): > 100 µM (inactive); GI50 (SW-620): > 100 µM (inactive); GI50 (RPMI-8226): > 100 µM (inactive); GI50 (HOP-92): > 100 µM (inactive); GI50 (NCI-H23): > 100 µM (inactive); GI50 (SK-MEL-2): > 100 µM (inactive); GI50 (MCF7): > 100 µM (inactive); GI50 (NCI/ADR-RES): > 100 µM (inactive); GI50 (SNB-19): > 100 µM (inactive); GI50 (K562): > 100 µM (inactive); GI50 (786-0): > 100 µM (inactive); GI50 (EKVX): > 100 µM (inactive); GI50 (MDA-MB-435): > 100 µM (inactive); GI50 (HCC 2998): > 100 µM (inactive); GI50 (T47D): > 100 µM (inactive); GI50 (NCI-H522): > 100 µM (inactive); GI50 (A498): > 100 µM (inactive); GI50 (ACHN): > 100 µM (inactive); GI50 (DU-145): > 100 µM (inactive); GI50 (COLO 205): 68.2 µM (inactive); GI50 (BT-549): > 100 µM (inactive); GI50 (LOX IMVI): > 100 µM (inactive); GI50 (SK-MEL-5): 31 µM (inactive); GI50 (SF-539): > 100 µM (inactive); GI50 (HL-60): > 100 µM (inactive); GI50 (RXF 393): > 100 µM (inactive); GI50 (HOP-62): > 100 µM (inactive); GI50 (MDA-MB-231): > 100 µM (inactive); GI50 (IGROV-1): > 100 µM (inactive); GI50 (CAKI-1): > 100 µM (inactive); GI50 (PC-3): > 100 µM (inactive); GI50 (MOLT-4): > 100 µM (inactive); GI50 (NCI-H226): > 100 µM (inactive); GI50 (UO-31): > 100 µM (inactive); GI50 (SK-MEL-28): > 100 µM (inactive); GI50 (SF-268): > 100 µM (inactive); GI50 (UACC-257): > 100 µM (inactive); GI50 (KM12): > 100 µM (inactive); GI50 (Hs-578T): > 100 µM (inactive); GI50 (HCT-15): > 100 µM; GI50 (OVCAR-3): > 100 µM (inactive)

Q: `S=C(N1CCN(c2cccc(Cl)c2)CC1)N1CCN(c2cccc(Cl)c2)CC1` was tested. Which GI50 (U-251) did it give?
A: 87.3 µM (inactive)

Q: What about the GI50 (MDA-N) of the same molecule?
A: > 100 µM (inactive)

Q: And the GI50 (SF-295)?
A: 39.3 µM (inactive)

Q: What about the GI50 (M14) of the same molecule?
A: 53.7 µM (inactive)

Q: And the GI50 (TK-10)?
A: 43.4 µM (inactive)

Q: What about the GI50 (SR) of the same molecule?
A: 13.4 µM (inactive)

Q: And the GI50 (Malme-3M)?
A: 21.2 µM (inactive)

Q: And the GI50 (OVCAR-8)?
A: > 100 µM (inactive)

Q: And the GI50 (OVCAR-4)?
A: 28.9 µM (inactive)

Q: And the GI50 (A549)?
A: 68.1 µM (inactive)

Q: What about the GI50 (HT-29) of the same molecule?
A: 28.8 µM (inactive)

Q: What about the GI50 (HCT-116) of the same molecule?
A: 21.2 µM (inactive)

Q: And the GI50 (OVCAR-5)?
A: 44.1 µM (inactive)

Q: And the GI50 (CCRF-CEM)?
A: 5.71 µM (inactive)

Q: What about the GI50 (SK-OV-3) of the same molecule?
A: > 100 µM (inactive)

Q: And the GI50 (UACC-62)?
A: 83 µM (inactive)

Q: What about the GI50 (SW-620) of the same molecule?
A: > 100 µM (inactive)

Q: What about the GI50 (RPMI-8226) of the same molecule?
A: 34.6 µM (inactive)

Q: And the GI50 (NCI-H23)?
A: > 100 µM (inactive)

Q: What about the GI50 (SK-MEL-2) of the same molecule?
A: > 100 µM (inactive)

Q: And the GI50 (MCF7)?
A: 37.1 µM (inactive)

Q: And the GI50 (NCI/ADR-RES)?
A: > 100 µM (inactive)

Q: What about the GI50 (SNB-19) of the same molecule?
A: 39.7 µM (inactive)

Q: What about the GI50 (K562) of the same molecule?
A: 33 µM (inactive)

Q: What about the GI50 (786-0) of the same molecule?
A: 33.3 µM (inactive)

Q: And the GI50 (EKVX)?
A: 35 µM (inactive)

Q: And the GI50 (MDA-MB-435)?
A: 82 µM (inactive)

Q: And the GI50 (HCC 2998)?
A: 17.5 µM (inactive)

Q: What about the GI50 (T47D) of the same molecule?
A: 16.9 µM (inactive)

Q: And the GI50 (NCI-H522)?
A: 26.9 µM (inactive)

Q: What about the GI50 (ACHN) of the same molecule?
A: 50.8 µM (inactive)

Q: And the GI50 (DU-145)?
A: 30.3 µM (inactive)

Q: And the GI50 (COLO 205)?
A: 22 µM (inactive)

Q: What about the GI50 (BT-549) of the same molecule?
A: 75.3 µM (inactive)

Q: What about the GI50 (SK-MEL-5) of the same molecule?
A: 34.2 µM (inactive)

Q: And the GI50 (RXF 393)?
A: 36.6 µM (inactive)

Q: And the GI50 (HOP-62)?
A: 36.8 µM (inactive)

Q: What about the GI50 (MDA-MB-231) of the same molecule?
A: 11 µM (inactive)

Q: And the GI50 (IGROV-1)?
A: 42.6 µM (inactive)

Q: What about the GI50 (CAKI-1) of the same molecule?
A: 25.2 µM (inactive)

Q: And the GI50 (PC-3)?
A: 32.7 µM (inactive)

Q: And the GI50 (MOLT-4)?
A: 16 µM (inactive)

Q: And the GI50 (NCI-H226)?
A: 22 µM (inactive)

Q: What about the GI50 (UO-31) of the same molecule?
A: 24 µM (inactive)

Q: What about the GI50 (SK-MEL-28) of the same molecule?
A: 42.9 µM (inactive)

Q: What about the GI50 (SF-268) of the same molecule?
A: 39.9 µM (inactive)

Q: What about the GI50 (UACC-257) of the same molecule?
A: 77.3 µM (inactive)

Q: And the GI50 (KM12)?
A: 24.4 µM (inactive)

Q: And the GI50 (Hs-578T)?
A: 18.6 µM (inactive)

Q: What about the GI50 (HCT-15) of the same molecule?
A: 57.3 µM

Q: And the GI50 (OVCAR-3)?
A: 47 µM (inactive)
